Measured values as given in patent US11767322B2 (BRISTOL-MYERS SQUIBB COMPANY, priority 2020, dated 2023).
Like-named read-outs stand apart in the source and are kept apart here.

How the values were obtained:
[1] = biological target: T1, His-GST-TVMV-hRIPK1(1-324) (Homo sapiens, UniProt Q13546); assay: biochemical; format: binding
T1 construct: The coding region of human RIPK1(1-324) flanked by NdeI site at 5′ end; made in house; host or cells: Spodoptera frugiperda Sf9 insect cells (baculovirus, Bac-to-Bac)
T1 sequence (Q13546 1-324): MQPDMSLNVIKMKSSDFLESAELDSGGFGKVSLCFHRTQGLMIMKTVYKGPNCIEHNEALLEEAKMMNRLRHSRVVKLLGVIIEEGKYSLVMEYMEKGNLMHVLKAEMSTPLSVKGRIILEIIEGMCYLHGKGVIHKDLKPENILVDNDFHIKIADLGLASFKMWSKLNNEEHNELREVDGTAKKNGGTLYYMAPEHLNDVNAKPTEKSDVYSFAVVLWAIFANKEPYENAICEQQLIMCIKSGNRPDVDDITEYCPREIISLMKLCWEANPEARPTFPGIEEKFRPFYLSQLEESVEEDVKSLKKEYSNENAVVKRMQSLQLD

[2] = biological target: GST-tagged PIK3Cδ in complex with PIK3R1 (Homo sapiens, UniProt O00329); assay: PI3Kδ HTRF binding assay; settings: read-out: PIK3CD IC50
[3] = test system: MLKL phosphorylation in HT29-L23 human colorectal adenocarcinoma cells; assay: MLKL phosphorylation high-content assay; format: cell-based; settings: necroptosis induced with TNFα, SMAC mimetic and Z-VAD, 6 h, maximal inhibition defined by Nec1s
[4] = HTRF probe displacement, 1 h at rt, read-out: RIPK1 IC50
[5] = HTRF probe displacement, 1 h at rt
[6] = Homo sapiens, read-out: pMLKL IC50, HT29-L23 cells
[7] = HT29-L23 cells, read-out: pMLKL IC50

Sequence of GST-tagged PIK3Cδ in complex with PIK3R1 (O00329 whole entry): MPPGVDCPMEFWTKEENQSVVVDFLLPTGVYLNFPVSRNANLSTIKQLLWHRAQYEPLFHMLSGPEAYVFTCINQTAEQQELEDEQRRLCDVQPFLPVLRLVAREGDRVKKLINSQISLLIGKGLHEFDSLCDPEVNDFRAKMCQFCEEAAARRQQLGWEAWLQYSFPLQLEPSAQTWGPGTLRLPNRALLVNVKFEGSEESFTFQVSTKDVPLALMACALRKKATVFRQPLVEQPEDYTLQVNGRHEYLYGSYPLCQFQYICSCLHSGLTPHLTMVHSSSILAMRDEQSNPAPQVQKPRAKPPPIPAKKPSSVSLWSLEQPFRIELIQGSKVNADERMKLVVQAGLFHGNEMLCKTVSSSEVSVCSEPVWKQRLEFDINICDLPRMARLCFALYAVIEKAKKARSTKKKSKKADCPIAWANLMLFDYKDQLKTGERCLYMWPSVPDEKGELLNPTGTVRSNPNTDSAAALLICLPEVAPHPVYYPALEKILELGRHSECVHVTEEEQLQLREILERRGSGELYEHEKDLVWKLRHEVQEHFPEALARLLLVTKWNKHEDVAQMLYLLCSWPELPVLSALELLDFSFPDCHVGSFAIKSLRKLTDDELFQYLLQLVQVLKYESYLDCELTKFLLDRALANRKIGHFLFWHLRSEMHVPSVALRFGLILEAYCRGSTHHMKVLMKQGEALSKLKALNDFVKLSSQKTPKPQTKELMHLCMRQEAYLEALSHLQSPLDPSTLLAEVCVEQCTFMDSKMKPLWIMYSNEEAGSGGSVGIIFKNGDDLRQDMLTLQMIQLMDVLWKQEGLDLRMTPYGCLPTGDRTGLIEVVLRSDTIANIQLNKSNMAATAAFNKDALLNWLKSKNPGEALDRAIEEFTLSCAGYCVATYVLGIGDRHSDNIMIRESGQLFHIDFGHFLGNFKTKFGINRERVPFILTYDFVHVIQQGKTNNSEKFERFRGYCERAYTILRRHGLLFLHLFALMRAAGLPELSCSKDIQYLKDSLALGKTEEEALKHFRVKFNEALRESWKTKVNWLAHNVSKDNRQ
Sequence of GST-tagged PIK3Cδ in complex with PIK3R1 (P27986 whole entry partner): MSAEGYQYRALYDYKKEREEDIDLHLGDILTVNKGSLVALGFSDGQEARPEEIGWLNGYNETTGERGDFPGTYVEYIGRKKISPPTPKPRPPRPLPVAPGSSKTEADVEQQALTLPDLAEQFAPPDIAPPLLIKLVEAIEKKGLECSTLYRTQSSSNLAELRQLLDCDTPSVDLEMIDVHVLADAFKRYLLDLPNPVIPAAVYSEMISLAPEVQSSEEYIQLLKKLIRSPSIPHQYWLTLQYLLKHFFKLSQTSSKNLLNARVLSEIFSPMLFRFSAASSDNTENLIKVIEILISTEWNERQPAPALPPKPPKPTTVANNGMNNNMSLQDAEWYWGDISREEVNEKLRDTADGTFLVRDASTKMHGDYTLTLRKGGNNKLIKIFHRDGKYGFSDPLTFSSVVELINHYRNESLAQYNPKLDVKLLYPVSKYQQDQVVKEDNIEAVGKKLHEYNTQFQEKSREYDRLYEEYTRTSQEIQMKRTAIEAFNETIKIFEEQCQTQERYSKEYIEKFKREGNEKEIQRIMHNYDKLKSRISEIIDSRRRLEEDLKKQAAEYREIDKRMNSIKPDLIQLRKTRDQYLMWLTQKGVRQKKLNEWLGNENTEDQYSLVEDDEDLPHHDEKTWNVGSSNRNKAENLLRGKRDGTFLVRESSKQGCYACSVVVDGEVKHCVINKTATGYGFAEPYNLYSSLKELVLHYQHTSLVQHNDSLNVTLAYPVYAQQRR

Row | Compound | IC50 [1, 4] | IC50 [2, 5] | IC50 ([3]; read-out: pMLKL IC50, HT29-L23 cells) | IC50 [3, 6] | IC50 ([1]; RIPK1 IC50) | IC50 [3, 7] | IC50 [2]
1 | Nc1nc2cc(-c3ccc(Cl)c(C(=O)NCC(F)(F)C(O)c4ccc(Cl)c(Cl)c4)c3F)ccn2n1 (single isomer, unassigned) [Example 265, 3-{2-amino-[1,2,4]triazolo[1,5-a]pyridin-7-yl}-6-chloro-N-[3-(3,4-dichlorophenyl)-2,2-difluoro-3-hydroxypropyl]-2-fluorobenzamide] | 4.1 nM | > 15000 nM | 3.6 nM | – | – | – | –
2 | CCc1ccc(-c2ccn3nc(N)nc3c2)c(F)c1C(=O)NCC(F)(F)C(O)c1ccc(F)cn1 (single isomer, unassigned) [Example 266, 3-(2-amino-[1,2,4]triazolo[1,5-a]pyridin-7-yl)-N-(2,2-difluoro-3-(5-fluoropyridin-2-yl)-3-hydroxypropyl)-6-ethyl-2-fluorobenzamide] | 13 nM | > 15000 nM | – | 2.4 nM | – | – | –
3 | Nc1nc2cc(-c3ccc(Cl)c(C(=O)NCC(F)(F)C(O)c4ccc(Cl)c(Cl)n4)c3F)ccn2n1 (single isomer, unassigned) [Example 272, 3-(2-amino-[1,2,4]triazolo[1,5-a]pyridin-7-y)-6-chloro-N-(3-(5,6-dichloropyridin-2-yl)-2,2-difluoro-3-hydroxypropyl)-2-fluorobenzamide] | 6.8 nM | > 15000 nM | – | 11 nM | – | – | –
4 | Nc1nc2cc(-c3ccc(Cl)c(C(=O)NC[C@H](F)[C@@H](O)c4ccc(F)cc4)c3F)ccn2n1 (single isomer, unassigned) [Example 296] | 15 nM | 10000 nM | – | 22 nM | – | – | –
5 | Nc1nc2cc(-c3ccc(Cl)c(C(=O)NC[C@@H](F)[C@H](O)c4ccc(F)cc4)c3F)ccn2n1 (single isomer, unassigned) [Example 297] | 3.7 nM | > 15000 nM | – | 1.6 nM | – | – | –
6 | Nc1nc2cc(-c3ccc(Cl)c(C(=O)NC[C@@H](F)[C@@H](O)c4ccc(F)cc4)c3F)ccn2n1 (single isomer, unassigned) [Example 298] | 2.9 nM | 8000 nM | – | 0.5 nM | – | – | –
7 | Nc1nc2cc(-c3ccc(Cl)c(C(=O)NC[C@H](F)[C@H](O)c4ccc(F)cc4)c3F)ccn2n1 (single isomer, unassigned) [Example 299] | 16 nM | 10000 nM | – | 37 nM | – | – | –
8 | COc1c(-c2ccc(C)c(C(=O)NCC(F)(F)C(O)c3ccc(F)cc3)c2F)ccn2nc(N)nc12 (single isomer, unassigned; enantiomer 1) [Example 135] | – | > 15000 nM | – | – | 5.6 nM | 0.5 nM | –
9 | Cc1ccc(-c2ccn3nc(N)nc3c2)c(F)c1C(=O)NCCC(C)(C)c1ccc(Cl)cc1 [Example 15, 3-(2-amino-[1,2,4]triazolo[1,5-a]pyridin-7-yl)-N-(3-(4-chlorophenyl)-3-methylbutyl)-2-fluoro-6-methylbenzamide] | 1.5 nM | > 15000 nM | – | 1.7 nM | – | – | –
10 | Cc1ccc(-c2ccn3nc(N)nc3c2)c(F)c1C(=O)NCCC1(c2ccc(F)cc2)CC1 [Example 16, 3-(2-amino-[1,2,4]triazolo[1,5-a]pyridin-7-yl)-2-fluoro-N-(2-(1-(4-fluorophenyl)cyclopropyl)ethyl)-6-methylbenzamide] | 0.7 nM | > 15000 nM | – | 0.4 nM | – | – | –
11 | Cc1ccc(-c2ccn3nc(N)nc3c2)c(F)c1C(=O)NCC(F)(F)C(O)c1ccc(Cl)cc1 (stereo not drawn) [Example 29, 3-(2-amino-[1,2,4]triazolo[1,5-a]pyridin-7-yl)-N-(3-(4-chlorophenyl)-2,2-difluoro-3-hydroxypropyl)-2-fluoro-6-methylbenzamide] | 2.2 nM | > 15000 nM | – | 0.7 nM | – | – | –
12 | Cc1ccc(-c2ccn3nc(N)nc3c2)c(F)c1C(=O)NC(C)CC(O)c1ccc(F)cc1 (stereo not drawn) [Example 35, 3-(2-amino-[1,2,4]triazolo[1,5-a]pyridin-7-yl)-2-fluoro-N-(4-(4-fluorophenyl)-4-hydroxybutan-2-yl)-6-methylbenzamide] | 2 nM | 3900 nM | – | 0.9 nM | – | – | –
13 | Cc1ccc(-c2ccn3nc(N)nc3c2)c(F)c1C(=O)NCCC(O)c1cccc(Cl)c1 (stereo not drawn) [Example 43, 3-(2-amino-[1,2,4]triazolo[1,5-a]pyridin-7-yl)-N-(3-(3-chlorophenyl)-3-hydroxypropyl)-2-fluoro-6-methylbenzamide] | 3.2 nM | – | – | 2.6 nM | – | – | 11000 nM
14 | Cc1ccc(-c2ccn3nc(N)nc3c2)c(F)c1C(=O)NCCCC1CCCCC1 [Example 52, 3-(2-amino-[1,2,4]triazolo[1,5-a]pyridin-7-yl)-N-(3-cyclohexylpropyl)-2-fluoro-6-methylbenzamide] | 0.3 nM | > 15000 nM | – | 1.1 nM | – | – | –
15 | Cc1ccc(-c2ccn3nc(N)nc3c2)c(F)c1C(=O)NCCC(C)(C)c1ccccc1 [Example 58, 3-(2-amino-[1,2,4]triazolo[1,5-a]pyridin-7-yl)-2-fluoro-6-methyl-N-(3-methyl-3-phenylbutyl)benzamide] | 2.1 nM | > 15000 nM | – | 2.3 nM | – | – | –
16 | Nc1nc2cc(-c3ccc(Cl)c(C(=O)NCCC4(c5ccc(F)cc5)CC4)c3F)ccn2n1 [Example 84, 3-(2-amino-[1,2,4]triazolo[1,5-a]pyridin-7-yl)-6-chloro-2-fluoro-N-(2-(1-(4-fluorophenyl)cyclopropyl)ethyl)benzamide] | 1.6 nM | > 15000 nM | – | 1.1 nM | – | – | –
17 | Cc1c(F)cc(-c2ccn3nc(N)nc3c2)cc1C(=O)NCCC(C)c1ccccc1 (stereo not drawn) [Example 95, 5-{2-amino-[1,2,4]triazolo[1,5-a]pyridin-7-yl}-3-fluoro-2-methyl-N-(3-phenylbutyl)benzamide] | 3 nM | > 15000 nM | – | 5.9 nM | – | – | –
18 | Cc1c(C(=O)NCC[C@H](O)c2ccc(Cl)cc2)cc(-c2ccn3nc(N)nc3c2)c(F)c1F [Example 99, (S)-5-(2-amino-[1,2,4]triazolo[1,5-a]pyridin-7-yl)-N-(3-(4-chlorophenyl)-3-hydroxypropyl)-3,4-difluoro-2-methylbenzamide] | 5.5 nM | > 15000 nM | – | 2.9 nM | – | – | –
19 | Cc1ccc(-c2ccn3nc(N)nc3c2)c(F)c1C(=O)NCC(F)(F)C(O)c1ccc(F)cn1 (stereo not drawn) [Example 115, 3-{2-amino-[1,2,4]triazolo[1,5-a]pyridin-7-yl}-N-[2,2-difluoro-3-(5-fluoropyridin-2-yl)-3-hydroxypropyl]-2-fluoro-6-methylbenzamide] | 3.6 nM | – | – | – | – | 1.4 nM | > 15000 nM
20 | Nc1nc2cc(-c3ccc(Cl)c(C(=O)NCC(F)C(O)c4ccc(F)cc4)c3F)ccn2n1 (stereo not drawn) [Example 130, 3-(2-amino-[1,2,4]triazolo[1,5-a]pyridin-7-yl)-6-chloro-2-fluoro-N-(2-fluoro-3-(4-fluorophenyl)-3-hydroxypropyl)benzamide enantiomeric mixture 1] | 7.4 nM | 4900 nM | – | 2.9 nM | – | – | –
21 | Cc1ccc(-c2ccn3nc(N)nc3c2F)c(F)c1C(=O)NCC[C@H](O)c1ccc(Cl)cc1 [Example 132, (S)-3-(2-amino-8-fluoro-[1,2,4]triazolo[1,5-a]pyridin-7-yl)-N-(3-(4-chlorophenyl)-3-hydroxypropyl)-2-fluoro-6-methylbenzamide] | 8.4 nM | > 15000 nM | – | 1.1 nM | – | – | –
